# Legend:
# [1] = tested on: rice (Oryza sativa. L Japonica brand; Nipponbare) seeds; experiment: Effective concentration of Imazamox on rice plant body under aseptic culture conditions (seed germination); assay type: in vivo
# Description: Based on 1/2 MS solid medium (MS mix (Sigma), sucrose 15.0 g/L, Gelrite (Wako Pure Chemical Industries, Ltd.) 4.0 g/L, pH 5.8), media in 9 stages (0 mg/L, 0.5 mg/L, 1 mg/L, 2 mg/L, 4 mg/L, 5 mg/L, 10 mg/L, 20 mg/L, 30 mg/L) with different Imazamox concentrations were produced. Successively, chaff of rice (Oryza sativa. L Japonica brand; Nipponbare) seeds was removed, the seeds were shaken in 70% ethanol for 1 min, and sterilized by immersing in 2.5% sodium hypochlorite for 20-30 min while allowing for penetration. […]
# From the above, it was determined that the effective concentration of Imazamox under the aseptic culture conditions for rice plant body was 0.5 mg/L.
# rice callus = experiment: Effective concentration of Imazamox on rice callus under aseptic culture conditions; assay type: cell-based, Oryza sativa; conditions: 2N6 medium, 28 days; for proliferation state of the callus: 31.5° C.
# Description: Based on 2N6 solid medium (mentioned earlier), media in 4 stages (0 mg/L, 30 mg/L, 50 mg/L, 70 mg/L) with different Imazamox concentrations were produced. Callus was induced from the scutellum part of rice seed (mentioned earlier), inoculated to 2N6 solid medium added with Imazamox, cultured at 31.5° C. for 28 days in the dark all day, and the proliferation state of the callus was confirmed.
# From the above, it was determined that the effective concentration of Imazamox for rice callus was 70 mg/L.
smiles,measurement,setting,value
COCc1cnc(C2=NC(C)(C(C)C)C(=O)N2)c(C(=O)O)c1 (stereo not drawn) [Imazamox],"number of seeds, germination (7 days later)","[1]; Imazamox 0.5 mg/L in 1/2 MS medium, 24 seeds",0
same,germination circumstances,"[1]; Imazamox 0.5 mg/L or more, 25° C., 7 days",browning of embryo stem and whitening of coleoptile was confirmed in all seeds
same,survival rate (%),"[1]; Imazamox 0.5 mg/L, 7 days",0%
same,"number of seeds, germination (7 days later)","[1]; Imazamox 1 mg/L in 1/2 MS medium, 23 seeds",0
same,survival rate (%),"[1]; Imazamox 1 mg/L, 7 days",0%
same,"number of seeds, germination (7 days later)","[1]; Imazamox 2 mg/L in 1/2 MS medium, 24 seeds",0
same,survival rate (%),"[1]; Imazamox 2 mg/L, 7 days",0%
same,"number of seeds, germination (7 days later)","[1]; Imazamox 4 mg/L in 1/2 MS medium, 24 seeds",0
same,survival rate (%),"[1]; Imazamox 4 mg/L, 7 days",0%
same,"number of seeds, germination (7 days later)","[1]; Imazamox 5 mg/L in 1/2 MS medium, 24 seeds",0
same,survival rate (%),"[1]; Imazamox 5 mg/L, 7 days",0%
same,"number of seeds, germination (7 days later)","[1]; Imazamox 10 mg/L in 1/2 MS medium, 24 seeds",0
same,survival rate (%),"[1]; Imazamox 10 mg/L, 7 days",0%
same,"number of seeds, germination (7 days later)","[1]; Imazamox 20 mg/L in 1/2 MS medium, 24 seeds",0
same,survival rate (%),"[1]; Imazamox 20 mg/L, 7 days",0%
same,"number of seeds, germination (7 days later)","[1]; Imazamox 30 mg/L in 1/2 MS medium, 24 seeds",0
same,survival rate (%),"[1]; Imazamox 30 mg/L, 7 days",0%
same,effective concentration of Imazamox for rice plant body,"[1]; aseptic culture conditions, 1/2 MS medium, 7 days",0.5 mg/L
same,effective concentration of Imazamox for rice callus,rice callus,70 mg/L
same,proliferation state of the callus,rice callus; Imazamox 50 mg/L or below,mitotic proliferation of callus was observed
same,proliferation state of the callus,rice callus; Imazamox 70 mg/L,mitotic proliferation was inhibited

# Source: patent publication US11220693B2, “Method for converting monocot plant genome sequence in which nucleic acid base in targeted DNA sequence is specifically converted, and molecular complex used therein” (NATIONAL UNIVERSITY CORPORATION KOBE UNIVERSITY, priority 2015, dated 2022)
